The compounds below were run on wild-type red mold strain GZ3639 (assay: Inhibition of spore germination / reactive oxygen species generation through NOX enzyme inhibition in red mold). Conditions: 24 h, read-out: IC50 (µM), compound concentration at which the spore germination inhibition rate was 50%.
Format: cell-based
Method: When NADPH oxidase (NOX), which is involved in the generation of reactive oxygen species in red mold, is inhibited, normal mycelial growth is inhibited, abnormal form of monocyclic conidia is formed, and germination is inhibited. The abnormal phenotype caused by the reduction of reactive oxygen species in red mold can be easily observed under an optical microscope. Through this, the ability to inhibit generation of reactive oxygen species through NOX inhibition was evaluated.
Specifically, for the evaluation of compound activity, 0.1 mM of the compound was added to a minimum medium (MM20) spore suspension diluted to ⅕. Spores ([…]) of wild-type red mold strain GZ3639 were inoculated into the medium and cultured at 25° C. for 24 h, followed by microscopic observation. Compounds having a germination inhibition rate and microcycle conidiation to be 50% or more of those in normal germination were selected, and their activities were evaluated at concentrations of 50 µM, 25 µM, and 10 µM. At this time, the activity of substances having a germination inhibition rate of 95% at 10 µM was further evaluated at concentrations of 5 µM, 1 µM, 0.5 µM, and 0.1 µM. Based on the result of this evaluation, the compound concentration (inhibitory concentration 50%, IC50) at which the spore germination inhibition rate was 50% was determined.

SMILES | IC50
CN1C(=[Se])N(c2ccccc2)C(=O)/C1=C\c1ccc(N(C)C)cc1 [Compound 3, 5-(4-(dimethylamino)benzylidene)-1-methyl-3-phenyl-2-selenoxoimidazolidine-4-on] | 26 µM
CN1C(=[Se])N(c2ccccc2)C(=O)/C1=C\c1ccc(N2CCCC2)cc1 [Compound 7, 1-methyl-3-phenyl-5-(4-pyrrolidine-1-yl)benzylidene-2-selenoxoimidazolidine-4-on] | 16 µM
CN1C(=[Se])N(c2ccccc2)C(=O)/C1=C\c1cccc(O)c1 [Compound 8, 5-(3-hydroxybenzylidene)-1-methyl-3-phenyl-2-selenoxoimidazolidine-4-on] | 41 µM
CN1C(=[Se])N(c2ccccc2)C(=O)/C1=C\c1cccnc1 [Compound 9, 1-methyl-3-phenyl-5-(pyridine-3-ylmethylene)-2-selenoxoimidazolidine-4-on] | 37 µM
Cc1ccc(N2C(=O)/C(=C\c3cccc(O)c3O)N(C)C2=[Se])cc1 [Compound 11, 5-(2,3-dihydroxybenzylidene)-1-methyl-3-(4-tolyl)-2-selenoxoimidazolidine-4-on] | 46 µM
Cc1ccc(N2C(=O)/C(=C\c3ccc(Br)cc3)N(C)C2=[Se])cc1 [Compound 16, 5-(4-bromobenzylidene)-1-methyl-2-selenoxo-3-(4-tolyl)imidazolidine-4-on] | 46 µM
Cc1ccc(N2C(=O)/C(=C\c3ccc(N4CCCC4)cc3)N(C)C2=[Se])cc1 [Compound 17, 1-methyl-5-(4-pyrrolidine-1-yl)benzylidene-2-selenoxo-3-(4-tolyl)imidazolidine-4-on] | 11 µM
Cc1ccc(N2C(=O)/C(=C\c3ccc(O)cc3)N(C)C2=[Se])cc1 [Compound 18, 5-(4-hydroxybenzylidene)-1-methyl-2-selenoxo-3-(4-tolyl)imidazolidine-4-on] | 13 µM
Cc1ccc(N2C(=O)/C(=C\c3cccnc3)N(C)C2=[Se])cc1 [Compound 19, 1-methyl-5-(pyridine-3-ylmethylene)-2-selenoxo-3-(4-tolyl)imidazolidine-4-on] | 41 µM
Cc1ccc(N2C(=O)/C(=C\c3ccc(NCCN4CCOCC4)cc3)N(C)C2=[Se])cc1 [Compound 23, 1-methyl-5-(4-((2-morpholinoethyl)amino)benzylidene)-2-selenoxo-3-(4-tolyl)imidazolidine-4-on] | 5.2 µM
CCc1ccc(N2C(=O)/C(=C\c3ccc(O)cc3O)N(C)C2=[Se])cc1 [Compound 24, 5-(2,4-dihydroxybenzylidene)-3-(4-ethylphenyl)-1-methyl-2-selenoxoimidazolidine-4-on] | 14 µM
CCc1ccc(N2C(=O)/C(=C\c3ccc(N4CCCCC4)cc3)N(C)C2=[Se])cc1 [Compound 28, 3-(4-ethylphenyl)-1-methyl-5-(4-(piperidine-1-yl)benzylidene)-2-selenoxoimidazolidine-4-on] | 11 µM
CCc1ccc(N2C(=O)/C(=C\c3ccc(Br)cc3)N(C)C2=[Se])cc1 [Compound 29, 5-(4-bromobenzylidene)-3-(4-ethylphenyl)-1-methyl-2-selenoxoimidazolidine-4-on] | 11 µM
CCc1ccc(N2C(=O)/C(=C\c3cccnc3)N(C)C2=[Se])cc1 [Compound 31, 3-(4-ethylphenyl)-1-methyl-5-(pyridine-3-ylmethylene)-2-selenoxoimidazolidine-4-on] | 30 µM
CN1C(=[Se])N(c2ccc(Cl)cc2)C(=O)/C1=C\c1ccc(O)cc1O [Compound 35, 3-(4-chlorophenyl)-5-(2,4-dihydroxybenzylidene)-1-methyl-2-selenoxoimidazolidine-4-on] | 31 µM
CN1C(=[Se])N(c2ccc(Cl)cc2)C(=O)/C1=C\c1cccc(O)c1O [Compound 36, 3-(4-chlorophenyl)-5-(2,3-dihydroxybenzylidene)-1-methyl-2-selenoxoimidazolidine-4-on] | 46 µM
CN1C(=[Se])N(c2ccc(Cl)cc2)C(=O)/C1=C\c1ccc(O)c(O)c1 [Compound 37, 3-(4-chlorophenyl)-5-(3,4-dihydroxybenzylidene)-1-methyl-2-selenoxoimidazolidine-4-on] | 20 µM

Source: patent US20230286956A1 (DUKSUNG WOMEN'S UNIVERSITY INDUSTRY-ACADEMIC COOPERATION …, priority 2020, published 2023)
